Settings: pH 3

Structure (SMILES): C=CCC1(CC(C)C)C(=O)NC(=O)NC1=O [Butalbital, 5-(2-Methylpropyl)-5-(2-propenyl)-2,4,6(1H,3H,5H) -pyrim idinetrione]
- average degradation: 1.2%

— patent US7410635B2 (priority 2003, dated 2008)
